From US11999727B2 (Tango Therapeutics, Inc., priority 2020, dated 2024)

Assays:
[1] = biological target: T1, PRMT5 (Homo sapiens, UniProt O14744); experiment: PRMT5 biochemical IC50 assay with SAM as cofactor; conditions: PRMT5, SAM as cofactor; read-out: SAM IC50
T1 construct: purchased Viva (custom protein)

[2] = biological target: T1, PRMT5; experiment: PRMT5 biochemical IC50 assay with no cofactor; conditions: PRMT5, no cofactor; read-out: No Cofactor/rel IC50
Source text: Table 1 indicates IC50 values (μM) against PRMT5 for exemplary compounds in the presence of SAM as cofactor, with no cofactor, and with MTA as cofactor, respectively (columns 4-6). […] Ki values can be calculated from the IC50 values as described in the Examples section. As detailed in the Examples section, for the assay performed in the presence of SAM, IC50=Ki×1.5 (Ki=IC50/1.5).

[3] = biological target: T1, PRMT5; experiment: PRMT5 biochemical IC50 assay with MTA as cofactor; conditions: PRMT5, MTA as cofactor; read-out: MTA IC50
[4] = tested on: HAP1 MTAP-intact cell line; experiment: SDMA in-cell western assay, HAP1 MTAP-intact; format: cell-based; conditions: Homo sapiens, HAP1, SDMA in-cell western, HAP1 MTAP-intact; read-out: MTAP HAP1 intact IC50
In short: (§1)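 MTAP-null vs endogenous-MTAP HAP1 isogenic cells; in-cell western SDMA readout; IC50 per line.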

[5] = tested on: HAP1 MTAP-deleted cell line; experiment: SDMA in-cell western assay, HAP1 MTAP-deleted; format: cell-based; conditions: for IC50: Homo sapiens, HAP1, SDMA in-cell western, HAP1 MTAP-deleted, read-out: HAP1 MTAP deleted IC50; for MTAP intact/deleted ratio: IC50 ratio HAP1 MTAP-intact / HAP1 MTAP-deleted, SDMA in-cell western
In short: as §1

[6] = tested on: HAP1 MTAP-deleted cell line; experiment: Viability assay, MTAP-deleted cell line; format: cell-based; conditions: Homo sapiens, HAP1, viability assay, MTAP-deleted cell line; read-out: HAP1 MTAP deleted viability
Source text: Table 1 additionally indicates IC50 values in a viability assay for the MTAP-deleted cell line (column 10), indicating the effect of treatment with compound on cell survival.

T1 sequence (O14744 whole entry): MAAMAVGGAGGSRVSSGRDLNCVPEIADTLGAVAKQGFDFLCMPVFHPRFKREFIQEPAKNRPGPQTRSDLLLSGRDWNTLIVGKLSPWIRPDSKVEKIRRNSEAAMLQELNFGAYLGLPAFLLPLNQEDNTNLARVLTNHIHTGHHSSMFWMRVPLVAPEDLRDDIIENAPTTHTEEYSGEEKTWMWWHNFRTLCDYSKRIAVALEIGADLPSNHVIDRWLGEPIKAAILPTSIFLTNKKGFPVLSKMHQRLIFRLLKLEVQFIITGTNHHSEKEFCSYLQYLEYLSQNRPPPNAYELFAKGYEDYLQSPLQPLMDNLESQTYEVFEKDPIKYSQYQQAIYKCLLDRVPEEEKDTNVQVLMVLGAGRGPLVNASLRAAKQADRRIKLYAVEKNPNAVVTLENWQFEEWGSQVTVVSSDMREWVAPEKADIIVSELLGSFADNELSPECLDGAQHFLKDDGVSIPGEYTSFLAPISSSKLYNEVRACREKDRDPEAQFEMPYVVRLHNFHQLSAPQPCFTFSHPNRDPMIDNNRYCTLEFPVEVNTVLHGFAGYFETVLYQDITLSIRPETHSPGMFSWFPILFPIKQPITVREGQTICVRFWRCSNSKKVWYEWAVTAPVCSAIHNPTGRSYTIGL
T1 sequence (Q9BQA1 whole entry partner): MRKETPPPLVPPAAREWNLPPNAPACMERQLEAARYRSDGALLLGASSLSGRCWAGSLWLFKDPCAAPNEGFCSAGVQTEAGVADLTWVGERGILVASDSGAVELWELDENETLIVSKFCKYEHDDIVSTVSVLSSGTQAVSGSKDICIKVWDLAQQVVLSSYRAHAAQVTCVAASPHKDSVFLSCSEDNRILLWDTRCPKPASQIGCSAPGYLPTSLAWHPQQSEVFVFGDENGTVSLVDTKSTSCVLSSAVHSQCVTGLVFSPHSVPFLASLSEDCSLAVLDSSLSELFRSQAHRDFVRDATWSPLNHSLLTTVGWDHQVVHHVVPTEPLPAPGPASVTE

IC50 [1] [nM]	IC50 [2] [nM]	IC50 [3] [nM]	IC50 [4] [nM]	IC50 [5] [nM]	Compound	MTAP intact/deleted ratio [5]	IC50 [6] [nM]
50 to 500	50 to 500	< 50	> 1000	100 to 1000	COc1ccc([C@@H]2CC[C@@H](C)CN2C(=O)C(=O)Nc2cncc(C(N)=O)c2)cc1OC (racemic) [Compound 230, rac-5-{2-[(2R,5S)-2-(3,4-Dimethoxyphenyl)-5-methylpiperidin-1-yl]-2-oxoacetamido}pyridine-3-carboxamide]	A (an IC50 ratio greater than or equal to 10 fold)	1000 to 10000
50 to 500	50 to 500	< 50	> 1000	100 to 1000	C[C@@H]1C[C@H](c2ccccc2)N(C(=O)C(=O)Nc2cncc(C(N)=O)c2)C[C@H]1C (racemic) [Compound 231, 5-[[2-[(2R,4R,5S)-4,5-dimethyl-2-phenyl-1-piperidyl]-2-oxo-acetyl]amino]pyridine-3-carboxamide]	A (an IC50 ratio greater than or equal to 10 fold)	> 10000
50 to 500	50 to 500	50 to 500	> 1000	> 1000	C[C@@H]1CC[C@@H](c2ccc3nccn3c2)N(C(=O)C(=O)Nc2cncc(C(N)=O)c2)C1 (racemic) [Compound 234, rac-5-{2-[(2R,5S)-2-{Imidazo[1,2-a]pyridin-6-yl}-5-methylpiperidin-1-yl]-2-oxoacetamido}pyridine-3-carboxamide]	C (an IC50 ratio of less than 3 fold)	> 10000
50 to 500	50 to 500	50 to 500	> 1000	> 1000	Cc1cc(NC(=O)C(=O)N2C[C@H](C)CC[C@H]2c2ccnn2C)cnc1N (racemic) [Compound 235, N-(6-amino-5-methyl-3-pyridyl)-2-[(2R,5S)-5-methyl-2-(2-methylpyrazol-3-yl)-1-piperidyl]-2-oxo-acetamide]	B (an IC50 ratio greater than or equal to 3 fold but lower than 10 fold)	> 10000
50 to 500	50 to 500	50 to 500	> 1000	> 1000	COc1ccc([C@@H]2CC[C@@H](C)CN2C(=O)C(=O)Nc2cncc(C(N)=O)c2)cc1C#N (racemic) [Compound 237, rac-5-{2-[(2R,5S)-2-(3-Cyano-4-methoxyphenyl)-5-methylpiperidin-1-yl]-2-oxoacetamido}pyridine-3-carboxamide]	B (an IC50 ratio greater than or equal to 3 fold but lower than 10 fold)	> 10000
50 to 500	50 to 500	< 50	> 1000	100 to 1000	C[C@@H]1CC[C@@H](c2ccc(Cn3ccnc3)cc2)N(C(=O)C(=O)Nc2cncc(C(N)=O)c2)C1 (racemic) [Compound 238, rac-5-{2-[(2R,5S)-2-{4-[(1H-Imidazol-1-yl)methyl]phenyl}-5-methylpiperidin-1-yl]-2-oxoacetamido}pyridine-3-carboxamide]	A (an IC50 ratio greater than or equal to 10 fold)	1000 to 10000
50 to 500	50 to 500	< 50	> 1000	< 100	C[C@@H]1CC[C@@H](c2cccc(C#N)c2)N(C(=O)C(=O)Nc2cncc(C(N)=O)c2)C1 (racemic) [Compound 239, rac-5-{2-[(2R,5S)-2-(3-Cyanophenyl)-5-methylpiperidin-1-yl]-2-oxoacetamido}pyridine-3-carboxamide]	A (an IC50 ratio greater than or equal to 10 fold)	1000 to 10000
